Article PMC11212140, “Molecular Bidents with Two Electrophilic Warheads as a New Pharmacological Modality” (ACS Central Science, 2024)

How the values were obtained:
[1] = tested on: EGFR^L858R/C775S Ba/F3 cells; test: Antiproliferation assay (CellTiter-Glo); format: cell-based; conditions: vs EGFR^L858R Ba/F3
Description: Figure S6 Dose-response curves for the indicated compounds in EGFRL858R, EGFRL858R/C797S, and EGFRL858R/C775S Ba/F3 cells following 72 h of treatment. Cell viability was assessed with CellTiter-Glo.
Data are presented as the mean ± SEM (n = 4). Representative data from three independent experiments
(1 picture or pasted object on this page, not shown here)
For infection of Ba/F3 cells, 2.5 mL of viral supernatant and 8 μg/mL polybrene was added to 2.5 million cells per well in six-well plates. The plate was centrifuged at 2500 rpm for 90 minutes at 37 °C for the spin infection. Then, virus-containing medium was removed 48 hours later and successfully infected cells were selected with the addition of 1 μg/mL puromycin to the medium.
After 3 days, cells were transferred into the fresh medium without IL-3 and puromycin. IL-3-independent transformed cells were maintained in RPMI medium 1640 supplemented with 10%
FBS. Expression of EGFR was examined by Western blot.
Immunoblotting and antibodies
(§1) Cells were lysed in RIPA buffer (150 mM NaCl, 1.0% IGEPAL® CA-630, 0.5% sodium deoxycholate, 0.1% SDS, 50 mM Tris, pH 8.0) (Sigma, Cat# R0278) with protease inhibitor and phosphatase inhibitor (Roche). The protein concentrations were measured by BCA analysis (Thermo Fisher Scientific, Cat # PI23225). […]
(§2) or IRDye 680RD goat anti-Mouse IgG (LICOR Biosciences , Cat # 926-68070) secondary antibodies at room temperature for 1 hour. The membranes were detected on Odyssey CLx system. […]
treatment. Cell viability was determined by using CellTiter-Glo (Promega #G7571) according to the manufacturer’s instructions, measuring luminescence using an Envision plate-reader (PerkinElmer Inc.). […]
After 6 hours treatment, cells were pelleted, washed with PBS once and lysed with IP lysis buffer (25mMTris-HCl pH 7.4, 150mM NaCl, 1 mM EDTA, 1% NP-40 and 5% glycerol) (Thermo Fisher Scientific, Cat#87788) containing protease/phosphatase inhibitor cocktail (Roche). The protein concentrations were measured by BCA analysis (Pierce). […]

[2] = tested on: EGFR, ERK1/2, and Akt phosphorylation; test: Immunoblot of EGFR signaling pathway in EGFR-mutated Ba/F3 cells; format: cell-based; conditions: EGFR^L858R, EGFR^L858R/C797S and EGFR^L858R/C775S Ba/F3 cells, 6 h
Description: Figure 5 ZNL-0056 covalently engages Cys775 and Cys797 in EGFR Ba/F3 cells. (A) The average IC50 values (mean ± S.D.) of the indicated compounds in EGFR^L858R Ba/F3, EGFR^L858R/C797S Ba/F3, and EGFR^L858R/C775S Ba/F3 cells after […] treatment. The graph was generated from three independent experiments, each performed with four replicates. (B) Immunoblot assessment of the effect of ZNL-0056 on the EGFR signaling pathway in EGFR^L858R Ba/F3, EGFR^L858R/C797S Ba/F3, and EGFR^L858R/C775S Ba/F3 cells after 6 h treatment. Representative data from two independent experiments are shown.
For infection of Ba/F3 cells, 2.5 mL of viral supernatant and 8 μg/mL polybrene was added to 2.5 million cells per well in six-well plates. The plate was centrifuged at 2500 rpm for 90 minutes at 37 °C for the spin infection. […]
as §1, §2

C=CC(=O)Nc1cc(C(=O)Nc2nc3cccc(C)c3n2[C@@H]2CCCCN(C(=O)C=C)C2)cs1 [ZNL-0056]
potency loss (shift) in the EGFR^L858R/C775S mutant [1]: 2 fold
inhibition of EGFR, ERK1/2, and Akt phosphorylation [2]: significantly inhibited
